Laboratory results from the CheMixHub viscosity set.

Test: xn = mol fraction of the nth substance listed

NC(CO)C(=O)[O-].[K+] (configuration not stated) + O
viscosity [mPa·s], 100 kPa
Details | x1 = 0.009 | x1 = 0.019 | x1 = 0.029 | x1 = 0.039 | x1 = 0.049 | x1 = 0.06
303.15 K | 0.9271 | 1.088 | 1.308 | 1.575 | 1.929 | 2.448
308.15 K | 0.8325 | 0.9764 | 1.175 | 1.412 | 1.719 | 2.172
313.15 K | 0.7628 | 0.8877 | 1.067 | 1.279 | 1.55 | 1.949
318.15 K | 0.696 | 0.8049 | 0.9686 | 1.159 | 1.398 | 1.752
323.15 K | 0.6347 | 0.74 | 0.8896 | 1.061 | 1.275 | 1.59

CC(=O)N(C)C + OCCO
308.15 K, 101 kPa
Details | viscosity [mPa·s]
x2 = 0.1632 | 1.166
x2 = 0.2752 | 1.388
x2 = 0.4068 | 1.611
x2 = 0.5162 | 2.416
x2 = 0.6269 | 3.622
x2 = 0.7125 | 4.662
x2 = 0.7974 | 5.882
x2 = 0.8652 | 7.289
x2 = 0.9339 | 8.916

CC(N)=O + c1ccncc1
298.15 K, 101 kPa
Details | viscosity [mPa·s]
x1 = 0.0512 | 0.987
x1 = 0.0742 | 1.005
x1 = 0.111 | 1.088
x1 = 0.2065 | 1.381

CCC1CCCCC1 + CCCCCCCCCC(=O)OCC
viscosity [mPa·s], 100 kPa
Details | x1 = 0.1001 | x1 = 0.1999 | x1 = 0.3001 | x1 = 0.4 | x1 = 0.5002 | x1 = 0.5998 | x1 = 0.7 | x1 = 0.8 | x1 = 0.9001
293.15 K | 2.153 | 1.979 | 1.807 | 1.642 | 1.487 | 1.342 | 1.204 | 1.079 | 0.96
298.15 K | 1.963 | 1.807 | 1.655 | 1.51 | 1.373 | 1.242 | 1.12 | 1.007 | 0.9
303.15 K | 1.778 | 1.642 | 1.51 | 1.382 | 1.261 | 1.146 | 1.038 | 0.936 | 0.84
308.15 K | 1.626 | 1.503 | 1.384 | 1.271 | 1.165 | 1.063 | 0.966 | 0.873 | 0.786
313.15 K | 1.494 | 1.385 | 1.276 | 1.174 | 1.078 | 0.987 | 0.9 | 0.815 | 0.734
318.15 K | 1.377 | 1.279 | 1.185 | 1.095 | 1.01 | 0.928 | 0.846 | 0.767 | 0.692
323.15 K | 1.27 | 1.184 | 1.102 | 1.021 | 0.943 | 0.867 | 0.793 | 0.722 | 0.652

CC(N)=O + O
101 kPa
Details | viscosity [mPa·s]
293.15 K, x1 = 0.0438 | 1.015
293.15 K, x1 = 0.0791 | 1.178
293.15 K, x1 = 0.1282 | 1.416
295.65 K, x1 = 0.02282 | 1.222
295.65 K, x1 = 0.03616 | 1.155
295.65 K, x1 = 0.03629 | 1.149
295.65 K, x1 = 0.0429 | 1.262
295.65 K, x1 = 0.07191 | 1.716
295.65 K, x1 = 0.07575 | 1.47
298.15 K, x1 = 0.0024 | 0.89
298.15 K, x1 = 0.0185 | 0.991
298.15 K, x1 = 0.06152 | 1.232
298.15 K, x1 = 0.09656 | 1.458
298.15 K, x1 = 0.1531 | 1.875
298.15 K, x1 = 0.4073 | 4.442
303 K, x1 = 0.0363 | 1.149
303 K, x1 = 0.0438 | 1.015
303 K, x1 = 0.0791 | 1.178
303 K, x1 = 0.0928 | 1.416

CCC1CCCCC1 + CCCCCO
viscosity [mPa·s], 100 kPa
Details | x2 = 0.1003 | x2 = 0.2013 | x2 = 0.3005 | x2 = 0.4001 | x2 = 0.5004 | x2 = 0.5995 | x2 = 0.7009 | x2 = 0.8003 | x2 = 0.9007
293.15 K | 0.91 | 0.99 | 1.108 | 1.248 | 1.489 | 1.788 | 2.169 | 2.681 | 3.292
298.15 K | 0.845 | 0.915 | 1.024 | 1.177 | 1.339 | 1.613 | 1.948 | 2.339 | 2.862
303.15 K | 0.785 | 0.848 | 0.943 | 1.071 | 1.21 | 1.425 | 1.724 | 2.056 | 2.495
308.15 K | 0.728 | 0.778 | 0.855 | 0.942 | 1.087 | 1.263 | 1.501 | 1.796 | 2.166
313.15 K | 0.682 | 0.73 | 0.801 | 0.882 | 0.998 | 1.156 | 1.337 | 1.602 | 1.92
318.15 K | 0.651 | 0.693 | 0.752 | 0.834 | 0.929 | 1.061 | 1.246 | 1.454 | 1.723
323.15 K | 0.61 | 0.647 | 0.697 | 0.773 | 0.849 | 0.959 | 1.115 | 1.294 | 1.529

C=CCn1cc[n+](C)c1.O=S(=O)([N-]S(=O)(=O)C(F)(F)F)C(F)(F)F + CCCO
Details | viscosity [mPa·s]
313.15 K, 100 kPa, x1 = 0.8974 | 15.85

CCCCCCCCCO + CCOC(=O)OCC
101 kPa
Details | viscosity [mPa·s]
293.15 K, x1 = 0.008 | 0.816
293.15 K, x2 = 0.03967 | 9.964
293.15 K, x2 = 0.1094 | 7.69
293.15 K, x2 = 0.1857 | 5.899
293.15 K, x2 = 0.2865 | 4.28
293.15 K, x2 = 0.4032 | 3.037
293.15 K, x2 = 0.504 | 2.306
293.15 K, x2 = 0.5999 | 1.794
293.15 K, x2 = 0.6927 | 1.434
293.15 K, x2 = 0.8085 | 1.112
293.15 K, x2 = 0.8962 | 0.941
303.15 K, x1 = 0.00855 | 0.711
303.15 K, x2 = 0.03166 | 7.163
303.15 K, x2 = 0.1064 | 5.544
303.15 K, x2 = 0.1908 | 4.257
303.15 K, x2 = 0.2925 | 3.17
303.15 K, x2 = 0.4014 | 2.365
303.15 K, x2 = 0.5113 | 1.798
303.15 K, x2 = 0.62 | 1.39
303.15 K, x2 = 0.6981 | 1.173
303.15 K, x2 = 0.8041 | 0.949
303.15 K, x2 = 0.893 | 0.815
313.15 K, x1 = 0.00592 | 0.625
313.15 K, x2 = 0.06302 | 4.663
313.15 K, x2 = 0.1089 | 4.053
313.15 K, x2 = 0.1969 | 3.156
313.15 K, x2 = 0.301 | 2.399
313.15 K, x2 = 0.4008 | 1.879
313.15 K, x2 = 0.5098 | 1.458
313.15 K, x2 = 0.6011 | 1.199
313.15 K, x2 = 0.689 | 1.006
313.15 K, x2 = 0.8072 | 0.812
313.15 K, x2 = 0.8932 | 0.711
